Assay results as given in patent publication US5798093A (priority 1997, dated 1998).

Columns and labels:
[1] = system: Compound 48/80-induced scratching; assay: Anti-pruritic activity, mouse scratch model (Compound 48/80-induced scratching); format: in vivo, mouse (male Swiss albino); details: s.c.; for Mean % Inhibition of Scratching: Compound 48/80 challenge, 30 min; for antagonism of Compound 48/80-induced scratching (in words): dose-related
Experimental: Testing was performed in a mouse scratch model under blind conditions.
Groups of 8-10 male Swiss albino mice (Hilltop Lab Animals, Inc., Scottsdale, Pa.), weighing […], were used in the testing. They were housed under controlled temperature of 23-25° C. Food and water were freely available. Before the experiments, the mice were weighed, put into individual boxes and allowed to acclimate for 30 min.
Vehicle used to dissolve the test compounds: 20% w/w cremophor EL.
[…] of the vehicle (3-5 doses, n-8-10) was injected s.c. into the back of the neck of mice 20 min. before challenging them with 100 μl of Compound 48/80 (2 mg/ml; 50 μg) injected s.c. into the back of the neck.
To each mouse of a group of 8-10 mice previously subjected to the standard challenge various doses of the compounds, to be tested for anti-pruritic activity, were administered s.c. into the back of the neck.
For each group of 8-10 mice, the mean values for scratching were normalized to relative % antagonism of scratching and then plotted vs. dose of test compounds. Interval estimates of mean A50 were determined by nonlinear regression analysis (Kalcida Graph) and mean % inhibition of scratching was calculated.

[2] = system: warm water induced tail withdrawal reflex / castor oil diarrhea; details: po
Text: Peripheral selectivity is defined by the ratio of the ED50 in the tail-withdrawal assay over the ED50 in the anti-diarrheal assay.
Measure of Centrally-Mediated Opiod Analgesia by the Tail-Withdrawal Assay (Janssen, P. A. J.; Niemegeers, C. J. E.; Dony, J. G. H., The Inhibitory effect of Fentanyl and other morphine-like analgesics on the warm water induced tail withdrawal reflex in rats. Arzneimittel-Forschung 1963, 13, 502-507.)
Young female Wistar rats (170-210 g body weight) are used only once. […] Around 8:30 AM the "normal" reaction time of each rat is determined by immersing the lower 5 cm portion of the tail in a cup freshly filled with water from a large constant temperature (55° C.) bath until the typical tail withdrawal response is observed. […] The reaction time is measured in 0.5 second units with a stopwatch. […] Periodically thereafter (i.e., 1/4, 1/2, 1, 2, 3, 4, 5 and 6 hours after dosage) the reaction time is again measured by trained technicians unaware of the nature of the compounds. Results of these studies are expressed as ED50 concentration values (mg/kg), calculated as the dose producing a tail withdrawal latency equal to half the difference between the maximum latency (≤15 seconds) and the baseline latency (6 to 8 seconds). […]

[3] = reported; antidiarrheal use; cited from earlier work
itch = details: cited from earlier work

O=C(N1CCCCC1)C(CCN1CCC(O)(c2ccccc2)CC1)(c1ccccc1)c1ccccc1 [Compound 1, 1-[4-(4-Hydroxy-4-phenyl-1-piperidino)-2,2-diphenylbutyryl]piperidine]
Mean % Inhibition of Scratching ([1]; 2.5 mg/kg): 32% | Mean % Inhibition of Scratching ([1]; 5.0 mg/kg): 65% | Mean % Inhibition of Scratching ([1]; 10.0 mg/kg): 83% | antagonism of Compound 48/80-induced scratching (in words) [1]: antagonized Compound 48/80-induced scratching in a dose-related manner

CN(C)C(=O)C(CCN1CCC(O)(c2ccc(Br)cc2)CC1)(c1ccccc1)c1ccccc1 [Compound 3, 4-(p-Bromophenyl)-4-hydroxy-N,N-dimethyl-α,α-diphenyl-1-piperidinebutyramide]
antagonism of Compound 48/80-induced scratching (in words) [1]: antagonized Compound 48/80-induced scratching in a dose-related manner

O=C(N1CCCC1)C(CCN1CCC(O)(c2ccc(Cl)c(Cl)c2)CC1)(c1ccccc1)c1ccccc1 [Compound 4]
Peripheral Selectivity (ED50tw /ED50 Castor Oil) [2]: > 640

CN(C)C(=O)C(CCN1CCC(O)(c2ccc(Cl)cc2)CC1)(c1ccccc1)c1ccccc1 [Compound 6, 4-(p-Chlorophenyl)-4-hydroxy-N,N-dimethyl-α,α-diphenyl-1-piperidinebutyramide]
antagonism of Compound 48/80-induced scratching (in words) [1]: antagonized Compound 48/80-induced scratching in a dose-related manner | CNS effects (in words) [3]: devoid of CNS effects

CN(C)C(=O)C(CCN1CCC(O)(c2ccc(Cl)cc2)CC1)(c1ccccc1)c1ccccc1.Cl [Example 2, 4-(p-Chlorophenyl)-4-hydroxy-N,N-dimethyl-α,α-diphenylpiperidine-1-butyramide hydrochloride]
CNS effects (in words) [3]: completely free of the undesirable CNS effects

NCCc1c[nH]cn1 [histamine]
induction of itch (in words) (itch; humans / application to skin): produces itch but not pain

CN1CC[C@]23c4c5ccc(O)c4O[C@H]2[C@@H](O)C=C[C@H]3[C@H]1C5 [morphine]
generalized itching, incidence (itch; i.v.): about 1 % of patients

cyclosporin A
inhibition of itch in atopic dermatitis (in words) (itch; atopic dermatitis): itch is not inhibited by antihistamines, but by cyclosporin A
